Test results published in ChEMBL document CHEMBL1140819, “Protected aminooxyprolines for expedited library synthesis: application to Tsg101-directed proline-oxime containing peptides” (Bioorg Med Chem Lett, 2008).
*1 amine or outer side, *2 acyl side, *3 side chain or, on linkers, in order; H or OH if unused. Where a SMILES comes first, the peptide text is derived from it. [ ]: non-standard residue; d: D form. The star is where a group is joined. ξ: configuration not given here. Fluorescein(5-NHCS) = O=C1OC2(c3ccc(O)cc3Oc3cc(O)ccc32)c2cc(NC(=S)*)ccc21; X19 = O=C([C@@H]1C[C@@H](O/N=C\c2ccc([N+](=O)[O-])cc2)CN1[*:1])[*:2]; X47 = O=C([C@@H]1C[C@@H](O/N=C\c2ccc([N+](=O)[O-])o2)CN1[*:1])[*:2]; X48 = O=C([C@@H]1C[C@@H](O/N=C\c2c(F)c(F)c(F)c(F)c2F)CN1[*:1])[*:2]; X10 = O=C([C@@H]1C[C@H](O/N=C\c2c(F)c(F)c(F)c(F)c2F)CN1[*:1])[*:2]; X7 = O=C([C@@H]1[C@@H](O/N=C\c2c(F)c(F)c(F)c(F)c2F)CCN1[*:1])[*:2]; X9 = O=C([C@@H]1C[C@H](O/N=C\c2ccc([N+](=O)[O-])cc2)CN1[*:1])[*:2]; X5 = CC(/C=N\O[C@@H]1C[C@@H](C(=O)[*:2])N([*:1])C1)=C\c1ccccc1; X17 = COc1ccc(/C=N\O[C@@H]2C[C@@H](C(=O)[*:2])N([*:1])C2)cc1O; X21 = O=C([C@@H]1[C@@H](O/N=C\c2cnc3ccccc3c2)CCN1[*:1])[*:2]; X37 = O=C([C@@H]1C[C@@H](O/N=C\c2ccc(CO)o2)CN1[*:1])[*:2]; X46 = O=C([C@@H]1C[C@H](O/N=C\CCc2ccccc2)CN1[*:1])[*:2]; X44 = O=C([C@@H]1[C@@H](O/N=C\c2ccoc2)CCN1[*:1])[*:2]; X35 = O=C([C@@H]1C[C@H](O/N=C\c2ccoc2)CN1[*:1])[*:2]; X6 = O=C([C@@H]1C[C@@H](O/N=C\c2ccoc2)CN1[*:1])[*:2]; X2 = CCCCC/C=N\O[C@H]1C[C@@H](C(=O)[*:2])N([*:1])C1; ξPip = O=C(O)C1CCCCN1; Ava = NCCCCC(=O)O

Biological target: T1, Tumor susceptibility gene 101 protein (Homo sapiens, UniProt Q99816)
T1 sequence (Q99816 whole entry): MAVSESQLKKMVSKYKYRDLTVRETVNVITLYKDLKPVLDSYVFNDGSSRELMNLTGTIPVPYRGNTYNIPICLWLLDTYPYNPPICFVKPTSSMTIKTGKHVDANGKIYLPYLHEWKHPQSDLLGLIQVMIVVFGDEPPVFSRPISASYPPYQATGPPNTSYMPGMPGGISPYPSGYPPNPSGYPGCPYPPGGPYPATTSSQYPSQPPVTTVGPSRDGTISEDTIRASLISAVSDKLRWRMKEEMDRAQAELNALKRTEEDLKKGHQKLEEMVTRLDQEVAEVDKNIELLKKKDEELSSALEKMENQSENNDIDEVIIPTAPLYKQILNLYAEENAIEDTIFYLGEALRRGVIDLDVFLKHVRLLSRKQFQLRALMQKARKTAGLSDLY
Test: Binding affinity to Tsg101

IC50 | Compound
91 µM | C[C@H](NC(=O)[C@@H](NC(=O)[C@@H]1CCCN1C(=O)[C@H](CCC(=O)O)NC(=O)[C@@H]1CCCN1C(=O)CCCCNC(=S)Nc1ccc2c(c1)C1(OC2=O)c2ccc(O)cc2Oc2cc(O)ccc21)[C@@H](C)O)C(=O)N1CCCCC1C(=O)N1C[C@@H](O/N=C\c2ccc([N+](=O)[O-])cc2)C[C@H]1C(=O)N[C@@H](CCC(=O)O)C(=O)N[C@@H](CCC(=O)O)C(N)=O (stereo not given in full) ({Fluorescein(5-NHCS)-Ava}-PEPTA[ξPip][X9]EE-NH2)
21 µM | C[C@H](NC(=O)[C@@H](NC(=O)[C@@H]1CCCN1C(=O)[C@H](CCC(=O)O)NC(=O)[C@@H]1CCCN1C(=O)CCCCNC(=S)Nc1ccc2c(c1)C1(OC2=O)c2ccc(O)cc2Oc2cc(O)ccc21)[C@@H](C)O)C(=O)N1CCCCC1C(=O)N1C[C@H](O/N=C\c2ccc([N+](=O)[O-])cc2)C[C@H]1C(=O)N[C@@H](CCC(=O)O)C(=O)N[C@@H](CCC(=O)O)C(N)=O (stereo not given in full) ({Fluorescein(5-NHCS)-Ava}-PEPTA[ξPip][X19]EE-NH2)
26 µM | C[C@H](NC(=O)[C@@H](NC(=O)[C@@H]1CCCN1C(=O)[C@H](CCC(=O)O)NC(=O)[C@@H]1CCCN1C(=O)CCCCNC(=S)Nc1ccc2c(c1)C1(OC2=O)c2ccc(O)cc2Oc2cc(O)ccc21)[C@@H](C)O)C(=O)N1CCCCC1C(=O)N1C[C@H](O/N=C\c2ccc(CO)o2)C[C@H]1C(=O)N[C@@H](CCC(=O)O)C(=O)N[C@@H](CCC(=O)O)C(N)=O (stereo not given in full) ({Fluorescein(5-NHCS)-Ava}-PEPTA[ξPip][X37]EE-NH2)
12 µM | C[C@H](NC(=O)[C@@H](NC(=O)[C@@H]1CCCN1C(=O)[C@H](CCC(=O)O)NC(=O)[C@@H]1CCCN1C(=O)CCCCNC(=S)Nc1ccc2c(c1)C1(OC2=O)c2ccc(O)cc2Oc2cc(O)ccc21)[C@@H](C)O)C(=O)N1CCCCC1C(=O)N1C[C@H](O/N=C\c2ccc([N+](=O)[O-])o2)C[C@H]1C(=O)N[C@@H](CCC(=O)O)C(=O)N[C@@H](CCC(=O)O)C(N)=O (stereo not given in full) ({Fluorescein(5-NHCS)-Ava}-PEPTA[ξPip][X47]EE-NH2)
30 µM | C[C@H](NC(=O)[C@@H](NC(=O)[C@@H]1CCCN1C(=O)[C@H](CCC(=O)O)NC(=O)[C@@H]1CCCN1C(=O)CCCCNC(=S)Nc1ccc2c(c1)C1(OC2=O)c2ccc(O)cc2Oc2cc(O)ccc21)[C@@H](C)O)C(=O)N1CCCCC1C(=O)N1C[C@H](O/N=C\c2ccoc2)C[C@H]1C(=O)N[C@@H](CCC(=O)O)C(=O)N[C@@H](CCC(=O)O)C(N)=O (stereo not given in full) ({Fluorescein(5-NHCS)-Ava}-PEPTA[ξPip][X6]EE-NH2)

Further lines, the compound ahead of its results:

Compound | IC50
C[C@H](NC(=O)[C@@H](NC(=O)[C@@H]1CCCN1C(=O)[C@H](CCC(=O)O)NC(=O)[C@@H]1CCCN1C(=O)CCCCNC(=S)Nc1ccc2c(c1)C1(OC2=O)c2ccc(O)cc2Oc2cc(O)ccc21)[C@@H](C)O)C(=O)N1CCCCC1C(=O)N1C[C@@H](O/N=C\CCc2ccccc2)C[C@H]1C(=O)N[C@@H](CCC(=O)O)C(=O)N[C@@H](CCC(=O)O)C(N)=O (stereo not given in full) ({Fluorescein(5-NHCS)-Ava}-PEPTA[ξPip][X46]EE-NH2) | 83 µM
COc1ccc(/C=N\O[C@@H]2C[C@@H](C(=O)N[C@@H](CCC(=O)O)C(=O)N[C@@H](CCC(=O)O)C(N)=O)N(C(=O)C3CCCCN3C(=O)[C@H](C)NC(=O)[C@@H](NC(=O)[C@@H]3CCCN3C(=O)[C@H](CCC(=O)O)NC(=O)[C@@H]3CCCN3C(=O)CCCCNC(=S)Nc3ccc4c(c3)C3(OC4=O)c4ccc(O)cc4Oc4cc(O)ccc43)[C@@H](C)O)C2)cc1O (stereo not given in full) ({Fluorescein(5-NHCS)-Ava}-PEPTA[ξPip][X17]EE-NH2) | 23 µM
C[C@H](NC(=O)[C@@H](NC(=O)[C@@H]1CCCN1C(=O)[C@H](CCC(=O)O)NC(=O)[C@@H]1CCCN1C(=O)CCCCNC(=S)Nc1ccc2c(c1)C1(OC2=O)c2ccc(O)cc2Oc2cc(O)ccc21)[C@@H](C)O)C(=O)N1CCCCC1C(=O)N1CC[C@H](O/N=C\c2c(F)c(F)c(F)c(F)c2F)[C@H]1C(=O)N[C@@H](CCC(=O)O)C(=O)N[C@@H](CCC(=O)O)C(N)=O (stereo not given in full) ({Fluorescein(5-NHCS)-Ava}-PEPTA[ξPip][X7]EE-NH2) | 19 µM
C[C@H](NC(=O)[C@@H](NC(=O)[C@@H]1CCCN1C(=O)[C@H](CCC(=O)O)NC(=O)[C@@H]1CCCN1C(=O)CCCCNC(=S)Nc1ccc2c(c1)C1(OC2=O)c2ccc(O)cc2Oc2cc(O)ccc21)[C@@H](C)O)C(=O)N1CCCCC1C(=O)N1C[C@H](O/N=C\c2c(F)c(F)c(F)c(F)c2F)C[C@H]1C(=O)N[C@@H](CCC(=O)O)C(=O)N[C@@H](CCC(=O)O)C(N)=O (stereo not given in full) ({Fluorescein(5-NHCS)-Ava}-PEPTA[ξPip][X48]EE-NH2) | 32 µM
CCCCC/C=N\O[C@H]1C[C@@H](C(=O)N[C@@H](CCC(=O)O)C(=O)N[C@@H](CCC(=O)O)C(N)=O)N(C(=O)C2CCCCN2C(=O)[C@H](C)NC(=O)[C@@H](NC(=O)[C@@H]2CCCN2C(=O)[C@H](CCC(=O)O)NC(=O)[C@@H]2CCCN2C(=O)CCCCNC(=S)Nc2ccc3c(c2)C2(OC3=O)c3ccc(O)cc3Oc3cc(O)ccc32)[C@@H](C)O)C1 (stereo not given in full) ({Fluorescein(5-NHCS)-Ava}-PEPTA[ξPip][X2]EE-NH2) | 42 µM
C[C@H](NC(=O)[C@@H](NC(=O)[C@@H]1CCCN1C(=O)[C@H](CCC(=O)O)NC(=O)[C@@H]1CCCN1C(=O)CCCCNC(=S)Nc1ccc2c(c1)C1(OC2=O)c2ccc(O)cc2Oc2cc(O)ccc21)[C@@H](C)O)C(=O)N1CCCCC1C(=O)N1C[C@@H](O/N=C\c2c(F)c(F)c(F)c(F)c2F)C[C@H]1C(=O)N[C@@H](CCC(=O)O)C(=O)N[C@@H](CCC(=O)O)C(N)=O (stereo not given in full) ({Fluorescein(5-NHCS)-Ava}-PEPTA[ξPip][X10]EE-NH2) | 139 µM
C[C@H](NC(=O)[C@@H](NC(=O)[C@@H]1CCCN1C(=O)[C@H](CCC(=O)O)NC(=O)[C@@H]1CCCN1C(=O)CCCCNC(=S)Nc1ccc2c(c1)C1(OC2=O)c2ccc(O)cc2Oc2cc(O)ccc21)[C@@H](C)O)C(=O)N1CCCCC1C(=O)N1CC[C@H](O/N=C\c2ccoc2)[C@H]1C(=O)N[C@@H](CCC(=O)O)C(=O)N[C@@H](CCC(=O)O)C(N)=O (stereo not given in full) ({Fluorescein(5-NHCS)-Ava}-PEPTA[ξPip][X44]EE-NH2) | 20 µM
C[C@H](NC(=O)[C@@H](NC(=O)[C@@H]1CCCN1C(=O)[C@H](CCC(=O)O)NC(=O)[C@@H]1CCCN1C(=O)CCCCNC(=S)Nc1ccc2c(c1)C1(OC2=O)c2ccc(O)cc2Oc2cc(O)ccc21)[C@@H](C)O)C(=O)N1CCCCC1C(=O)N1CC[C@H](O/N=C\c2cnc3ccccc3c2)[C@H]1C(=O)N[C@@H](CCC(=O)O)C(=O)N[C@@H](CCC(=O)O)C(N)=O (stereo not given in full) ({Fluorescein(5-NHCS)-Ava}-PEPTA[ξPip][X21]EE-NH2) | 19 µM
C[C@H](NC(=O)[C@@H](NC(=O)[C@@H]1CCCN1C(=O)[C@H](CCC(=O)O)NC(=O)[C@@H]1CCCN1C(=O)CCCCNC(=S)Nc1ccc2c(c1)C1(OC2=O)c2ccc(O)cc2Oc2cc(O)ccc21)[C@@H](C)O)C(=O)N1CCCCC1C(=O)N1C[C@@H](O/N=C\c2ccoc2)C[C@H]1C(=O)N[C@@H](CCC(=O)O)C(=O)N[C@@H](CCC(=O)O)C(N)=O (stereo not given in full) ({Fluorescein(5-NHCS)-Ava}-PEPTA[ξPip][X35]EE-NH2) | 48 µM
CC(/C=N\O[C@@H]1C[C@@H](C(=O)N[C@@H](CCC(=O)O)C(=O)N[C@@H](CCC(=O)O)C(N)=O)N(C(=O)C2CCCCN2C(=O)[C@H](C)NC(=O)[C@@H](NC(=O)[C@@H]2CCCN2C(=O)[C@H](CCC(=O)O)NC(=O)[C@@H]2CCCN2C(=O)CCCCNC(=S)Nc2ccc3c(c2)C2(OC3=O)c3ccc(O)cc3Oc3cc(O)ccc32)[C@@H](C)O)C1)=C\c1ccccc1 (stereo not given in full) ({Fluorescein(5-NHCS)-Ava}-PEPTA[ξPip][X5]EE-NH2) | 13 µM
